Results published in patent US8598160B2, “Cycloalkyl lactame derivatives as inhibitors of 11-beta-hydroxysteroid dehydrogenase 1” (Vitae Pharmaceuticals, Inc., priority 2008, dated 2013).

Molecular target: human 11β-HSD1 (Homo sapiens, UniProt P28845)
Assay: biochemical
Details: for inhibition at 0.1111 µM: read-out: Average % inhibition at 111.1 nM; for inhibition at 0.1 µM: read-out: Average % inhibition at 100 nM
Description: All reactions were carried out at rt in 96 well clear flexible PET Microbeta plates (PerkinElmer). […] The reaction was stopped by adding 50 μl of the SPA beads suspension containing 10 μM 18β-glycyrrhetinic acid, 5 mg/ml protein A coated YSi SPA beads (GE Healthcare) and 3.3 μg/ml of anti-cortisol antibody (East Coast Biologics) in Superblock buffer (Bio-Rad). The plates were shaken for 120 minutes at rt, and the SPA signal corresponding to [^3H]cortisol was measured on a Microbeta plate reader.

Chain of human 11β-HSD1 (P28845 whole entry): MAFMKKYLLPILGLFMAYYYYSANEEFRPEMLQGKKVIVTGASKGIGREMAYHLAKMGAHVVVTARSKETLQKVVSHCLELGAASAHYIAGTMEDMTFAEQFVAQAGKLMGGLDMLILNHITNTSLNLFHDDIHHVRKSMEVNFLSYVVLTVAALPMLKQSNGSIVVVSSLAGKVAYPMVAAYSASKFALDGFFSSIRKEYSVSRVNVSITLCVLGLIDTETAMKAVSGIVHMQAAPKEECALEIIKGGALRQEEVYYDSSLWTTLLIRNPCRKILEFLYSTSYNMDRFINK

Row | IC50 [nM] | inhibition at 0.1111 µM [%] | inhibition at 0.1 µM [%] | SMILES
1 | 100 to 1000 | -5.9 |  | O=C1O[C@@H](c2ccccc2)CCN1c1cccc2ccccc12 [Example 3, (R)-3-(naphthalen-1-yl)-6-phenyl-1,3-oxazinan-2-one]
2 | 100 to 1000 | 22.5 |  | O=C1OC(c2ccccc2Cl)CCN1c1cccc(Br)c1 (stereo not drawn) [Example 4, 3-(3-bromophenyl)-6-(2-chlorophenyl)-1,3-oxazinan-2-one]
3 | < 100 |  | 94.5 | C[C@@H](c1ccc(-c2ccc(F)cc2F)cc1)N1CCC(c2ccccc2)CC1=O (mixture of isomers) [Example 5, 1-((1S)-1-(2′,4′-difluorobiphenyl-4-yl)ethyl)-4-phenylpiperidin-2-one]
4 | < 100 |  | 89.4 | COc1ccc([C@H](C)N2CCC(c3ccc(F)cc3)CC2=O)cc1 (stereo partly drawn) [Example 6, 4(-4-fluorophenyl)-1-((1S)-1-(4-methoxylphenyl)ethyl)piperidin-2-one]
5 | < 100 |  | 100 | C[C@@H](c1ccc(Br)cc1)N1CCCC(c2ccccc2)NC1=O (stereo partly drawn) [Example 8, 1-((S)-1-(4-bromophenyl)ethyl)-4-phenyl-1,3-diazepan-2-one]
6 | < 100 |  | 90.1 | C[C@@H](c1ccc(Br)cc1)N1CCC(c2ccc(F)cc2)OC1=O (mixture of isomers) [Example 7, 3-((1S)-1-(4-bromophenyl)ethyl)-6-(4-fluorophenyl)-1,3-oxazinan-2-one]
